Data taken from US8895474B2, “Herbicidally active cyclopentanediones and derivatives thereof, and their use in controlling weeds” (Syngenta Limited, priority 2009, dated 2014).

What was measured:
Format in all cases: in vivo
Conditions in all cases: 312 h, rate 250 g/ha, evaluated after 13 days, 100=total damage to plant, 0=no damage to plant
[1] = test system: Avena fatua (AVEFA); assay: Pre-emergence herbicidal activity, glasshouse pot test
How it was run: (§1)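 Seeds were sown in standard soil and sprayed one day after sowing with an aqueous solution of the active ingredient formulated in acetone/water (50:50) containing 0.5% Tween 20. Plants grew in the glasshouse at 24/16 °C day/night, 14 h light, 65% humidity. Damage was scored after 13 days (0 = none, 100 = total).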

[2] = test system: Echinochloa crus-galli (ECHCG); assay: as above
How it was run: as §1

[3] = test system: Alopecurus myosuroides (ALOMY); assay: as above
How it was run: as §1

[4] = test system: Lolium perenne (LOLPE); assay: as above
How it was run: as §1

[5] = test system: Avena fatua (AVEFA); assay: Post-emergence herbicidal activity, glasshouse pot test
How it was run: (§2)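 Plants grown from seed in standard soil were sprayed 8 days after sowing with the active ingredient formulated in acetone/water (50:50) containing 0.5% Tween 20. Glasshouse conditions were 24/16 °C day/night, 14 h light, 65% humidity, with watering twice daily. Damage was scored 13 days later (0 = none, 100 = total).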

[6] = test system: Echinochloa crus-galli (ECHCG); assay: as above
How it was run: as §2

[7] = test system: Alopecurus myosuroides (ALOMY); assay: as above
How it was run: as §2

[8] = test system: Lolium perenne (LOLPE); assay: as above
How it was run: as §2

Row | Structure (SMILES) | pest or weed control at 250 g/ha [1] [%] | pest or weed control at 250 g/ha [2] [%] | pest or weed control at 250 g/ha [3] [%] | pest or weed control at 250 g/ha [4] [%] | pest or weed control at 250 g/ha [5] [%] | pest or weed control at 250 g/ha [6] [%] | pest or weed control at 250 g/ha [7] [%] | pest or weed control at 250 g/ha [8] [%]
1 | CCc1ccc(Oc2nc3c(Cl)cc(Cl)cc3s2)cc1C1=C(O)CCC1=O [Compound A-77] | 0 | 90 | 20 | 20 | 0 | 80 | 20 | 30
2 | CCc1ccc(Oc2ncc(Cl)cc2C(F)(F)F)cc1C1=C(O)CCC1=O [Compound A-78] | 70 | 100 | 70 | 100 | 90 | 100 | 100 | 90
3 | CCc1ccc(Oc2cnc3ccc(Br)cc3n2)cc1C1=C(O)CCC1=O [Compound A-79] | 20 | 90 | 40 | 70 | 0 | 50 | 0 | 20
4 | CCc1ccc(Oc2ccc(C(F)(F)F)cc2Br)cc1C1=C(O)CCC1=O [Compound A-80] | 10 | 80 | 0 | 50 | 50 | 80 | 40 | 30
5 | CCc1ccc(Oc2ccc([N+](=O)[O-])c(Cl)c2)cc1C1=C(O)C2C(C1=O)[C@H]1CC[C@@H]2CC1 (stereo partly drawn) [Compound A-86] | 0 | 20 | 0 | 20 | 10 | 100 | 10 | 10
6 | CCc1ccc(Oc2ccc(C(F)(F)F)cn2)cc1C1=C(O)C2C(C1=O)[C@H]1CC[C@@H]2CC1 (stereo partly drawn) [Compound A-87] | 30 | 100 | 80 | 90 | 100 | 100 | 90 | 90
7 | CCc1ccc(Oc2ncc(C(F)(F)F)cc2Cl)cc1C1=C(O)C2C(C1=O)[C@H]1CC[C@@H]2CC1 (stereo partly drawn) [Compound A-88] | 40 | 100 | 90 | 100 | 100 | 100 | 90 | 90
8 | CCc1ccc(Oc2ncc(C(F)(F)F)cc2F)cc1C1=C(O)C2C(C1=O)[C@H]1CC[C@@H]2CC1 (stereo partly drawn) [Compound A-89] | 70 | 100 | 50 | 100 | 100 | 100 | 100 | 100
9 | CCc1ccc(Oc2ncc(Cl)cc2Cl)cc1C1=C(O)C2C(C1=O)[C@H]1CC[C@@H]2CC1 (stereo partly drawn) [Compound A-90] | 70 | 100 | 70 | 100 | 100 | 100 | 90 | 100
10 | CCc1ccc(Oc2cnc3ccc(Br)cc3n2)cc1C1=C(O)C2C(C1=O)[C@H]1CC[C@@H]2CC1 (stereo partly drawn) [Compound A-93] | 0 | 100 | 10 | 60 | 60 | 100 | 60 | 50
11 | CCc1ccc(Oc2ccc(C(F)(F)F)cc2[N+](=O)[O-])cc1C1=C(O)C2C(C1=O)[C@H]1CC[C@@H]2CC1 (stereo partly drawn) [Compound A-105] | 0 | 60 | 10 | 40 | 40 | 90 | 40 | 30
12 | CCc1ccc(Oc2nc3ccc(C(F)(F)F)cc3s2)cc1C1=C(O)C2C(C1=O)[C@H]1CC[C@@H]2CC1 (stereo partly drawn) [Compound A-108] | 10 | 80 | 30 | 50 | 90 | 100 | 90 | 70
